This is an account of results in the METLIN SMRT retention time set (Domingo-Almenara et al. 2019).

Structures are written as SMILES.

The data set in a line: gradient 5% acetonitrile 3 min, to 50% in 2 min, to 85% in 15 min, held 3 min, 100 µL/min. Particulars: column: Zorbax Extend-C18 2.1 x 50 mm; eluents: water / acetonitrile, 0.1% formic acid. A digest of the protocol:
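Over 3 months, pure standards in mixtures of ~100 molecules were run by HPLC coupled to a quadrupole time-of-flight mass spectrometer in positive and negative ionization mode. The column was a Zorbax Extend-C18 (2.1 × 50 mm, 1.8 μm) at 100 μL/min, eluted with water and acetonitrile each holding 0.1% formic acid, with 40 μL dead and 900 μL dwell volumes. Retention time was determined from adduct peaks chosen by software and checked manually.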
Consider `O=C1CCc2cc(NS(=O)(=O)Cc3ccccc3Cl)ccc2N1`, for which the RP-LC retention time came out at 783 s.

`COCCNC(=O)N1CC(c2nc(C3CC3)no2)C1` came in with an RP-LC retention time of 578 s.

As to `CCCNC(=O)N1CCCC(CCc2nnc(-c3cnccn3)o2)C1` (stereo not drawn), the RP-LC retention time is 647 s.

Turning to `COc1ccc(OC)c(-c2nnc(SCC(=O)Nc3nccs3)o2)c1`, the RP-LC retention time worked out at 693 s.

As for `Cc1ccc(NC(=O)N2CC(c3nc(CCOCC4CC4)no3)C2)cc1C`, the RP-LC retention time worked out at 863 s.

In turn, `CCN1C(=O)CCC2(C(=O)NCCc3c[nH]c4ccccc34)CCCC=C12` (stereo not drawn) registered an RP-LC retention time of 743 s.

On to `O=C(c1ccc(CS(=O)c2ccc(Br)cc2)o1)N1CCN(c2ccccn2)CC1` (stereo not drawn), for which the RP-LC retention time came out at 580 s.

In turn, `CCOc1ccc(NC(=O)N2CCC3(CC2)NC(=O)c2cc(Cl)ccc2N3C)cc1` registered an RP-LC retention time of 858 s.

Compound `Cn1c(N2CCCC(C(=O)NCc3cccs3)C2)cc(=O)n(C)c1=O` (stereo not drawn) came in with an RP-LC retention time of 650 s.

`COc1ccc(OC)c(S(=O)(=O)N2CCCC(C)(C(=O)NCc3cccc(F)c3)C2)c1` (stereo not drawn): the RP-LC retention time was found to be 916 s.

In turn, `CCOc1ccc(-c2nc(-c3cccc(-c4ccnn4C)c3)no2)cc1` returned an RP-LC retention time of 1230 s.

On to `Cc1ccc(C(=O)N2C[C@@H](C)[C@H](c3nc(C)no3)C2)cn1`, for which the RP-LC retention time turned out to be 593 s.

`COCC(=O)N1CCN(c2nc(CN3CCC(C)CC3)cs2)CC1` displayed an RP-LC retention time of 570 s.

`CCn1cc(-c2nc(C(=O)NCc3cc(F)cc(F)c3)cs2)c2cccnc21` displayed an RP-LC retention time of 1030 s.

Regarding `C[C@H]1CN(C(=O)c2cc(F)cc(F)c2)C[C@@H]1c1nc(-c2cccnc2)no1`, the RP-LC retention time was 795 s.

Compound `O=C(CSc1nccn1Cc1ccco1)NC1CCCCC1` had an RP-LC retention time of 589 s.

In turn, `COc1ccc2c(c1)C1(CCN(S(=O)(=O)c3cc(F)ccc3C)C1)C(=O)N2C` (stereo not drawn) came in with an RP-LC retention time of 997 s.

As for `Cc1ccc(Nc2c(-c3c(F)cccc3Cl)nc3cccc(C)n23)cc1`, the RP-LC retention time came to 763 s.

`COc1ccc(NC(=O)N2CCN(c3ccc(=O)n(-c4ccc(C)c(C)c4)n3)CC2)cc1OC` displayed an RP-LC retention time of 764 s.

The compound `COC(=O)c1ccc(CSc2nnc(N3CCN(c4ccc(F)cc4)CC3)s2)o1` had an RP-LC retention time of 927 s.

For `N#Cc1cccc(N2C=C(C(=O)N3CCCC3)S(=O)(=O)c3ccc(F)cc32)c1`, the RP-LC retention time worked out at 752 s.

`O=C(c1ccccc1)N1CCc2ccc(NS(=O)(=O)c3cccs3)cc2C1` displayed an RP-LC retention time of 759 s.

On to `CCCn1c(=O)c2c(nc3n2CCCCN3c2ccc(OCC)cc2)n(C)c1=O`, for which the RP-LC retention time was 973 s.

Compound `CC(=O)n1nc(-c2ccc(C)c(C)c2)nc1N` registered an RP-LC retention time of 813 s.

Turning to `CN1C(=O)COc2cc(-c3noc(C(=O)NCCc4ccc(S(N)(=O)=O)cc4)n3)ccc21`, the RP-LC retention time turned out to be 721 s.

As to `Cc1ccc(C(=O)N2CCCC2c2nc(-c3cccc(Cl)c3)no2)cc1C` (stereo not drawn), the RP-LC retention time was found to be 1200 s.

In turn, `Cc1ccc(-n2nc(N3CCCC(C(=O)NCc4ccccc4F)C3)ccc2=O)cc1Cl` (stereo not drawn) came in with an RP-LC retention time of 942 s.

As to `Cc1[nH]c(C)c(S(=O)(=O)N2CCC(C(=O)Nc3ccccc3F)CC2)c1C(=O)N1CCCC1`, the RP-LC retention time was found to be 720 s.

`CCC(=O)N1c2ccccc2NC2=C(C(=O)CC(C)(C)C2)C1c1ccc(O)c(OC)c1` (stereo not drawn) showed an RP-LC retention time of 703 s.

Compound `CC(C)Oc1ccc(CNC(=O)C2CCCN(c3ccc(=O)n(-c4cccc(Cl)c4)n3)C2)cc1` (stereo not drawn) had an RP-LC retention time of 946 s.

`Cc1noc2ncn(CC(=O)NCc3ccc(F)cc3)c(=O)c12`: the RP-LC retention time worked out at 724 s.

The compound `CCCCC(=O)NC1(C(F)(F)F)C(=O)N(Cc2ccccc2)C(C)=C1C(=O)OC` (stereo not drawn) had an RP-LC retention time of 989 s.

In the case of `O=C(NC1CCCCCC1)C1CCN(c2cncnc2N2CCCCC2)CC1`, the RP-LC retention time was determined as 712 s.
